Reference: patent US11780832B2, “Lactivicin compounds, their preparation and use as antibacterial agents” (priority 2021, dated 2023)
Values after ≈ are worked out from the molar mass of the structure shown.

Tests used:
Experiment in all cases: MIC, CLSI broth microdilution
Assay type in all cases: cell-based
[1] = tested on: Pseudomonas aeruginosa ATCC 27853; details: ATCC27853
Procedure: (§1) Gram-negative and Gram-positive bacterial strains used during the in vitro minimum inhibitory concentration (MIC) determination were obtained either from the American Type Culture Collection (ATCC) or from clinical specimens. All strains were characterized genotypically and the respective antibiotic resistance markers for each strain were identified.
(§2) Isolates were sub-cultured onto appropriate media and stocked in skim milk at −80° C. Following two subcultures from frozen stock, in vitro antimicrobial susceptibility testing was performed using the Clinical and Laboratory Standards Institute (CLSI) broth microdilution method. Briefly, fresh cultures were suspended in culture media to give a final stock inoculum size of 5×10^7 colony forming units per milliliter of broth (CFU/mL). […] 100 μL of the stock solutions were added to the first wells in a 96-well plate and were then diluted using a 2-fold dilution method to give a range of 32-0.025 μg/mL. 100 μL of the bacterial suspensions were then added to the 96-well plates to give a final working inoculum size of 5×10^5 CFU/mL. The final compound concentration range was 16-0.0125 μg/mL. […] MICs for comparator agents were determined using custom-designed, in-house prepared 96-well broth microdilution panels.

[2] = tested on: Enterobacter cloacae species complex NDM-1
Procedure: as §1, §2

Escherichia coli CMY-2 = details: CMY2
Procedure: as §1, §2

[3] = tested on: Citrobacter freundii species complex OXA-181; details: Citrobacter freundii species complex, OXA-181; read-out: MIC
Procedure: as §1, §2

[4] = tested on: Escherichia coli Isogenic TEM-26
Procedure: as §1, §2

[5] = tested on: Escherichia coli pSMART_Cfreundii_AmpC
Procedure: as §1, §2

[6] = tested on: Escherichia coli ATCC 25922; details: ATCC25922
Procedure: as §1, §2

[7] = tested on: Klebsiella oxytoca KPC-2, TEM-1; details: KPC-2, TEM-1, read-out: MIC
Procedure: as §1, §2

[8] = tested on: Serratia marcescens SME-2; details: SME2
Procedure: as §1, §2

[9] = tested on: Pseudomonas aeruginosa OprD negative
Procedure: as §1, §2

[10] = tested on: Klebsiella aerogenes VIM-1, SHV-12
Procedure: as §1, §2

[11] = tested on: Escherichia coli Empty pSMART plasmid
Procedure: as §1, §2

[12] = tested on: Serratia marcescens AmpC overexpressed
Procedure: as §1, §2

[13] = tested on: Pseudomonas aeruginosa AmpC overexpressed
Procedure: as §1, §2

[14] = tested on: Klebsiella pneumoniae KPC-3; details: KPC3, KPC-3, read-out: MIC
Procedure: as §1, §2

Escherichia coli SHV-12 = details: SHV12
Procedure: as §1, §2

[15] = tested on: Klebsiella pneumoniae KPC-2; details: KPC2
Procedure: as §1, §2

[16] = tested on: Escherichia coli CTX-M-15; details: CTXM15
Procedure: as §1, §2

[17] = tested on: Acinetobacter baumannii ATCC 19606; details: ATCC19606
Procedure: as §1, §2

[18] = tested on: Escherichia coli pSMART_Ecloacae_AmpC
Procedure: as §1, §2

[19] = tested on: Klebsiella pneumoniae SHV-12; details: SHV12, SHV-12, read-out: MIC
Procedure: as §1, §2

[20] = tested on: Klebsiella pneumoniae OXA-48, SHV-1
Procedure: as §1, §2

[21] = tested on: Escherichia coli Isogenic TEM-10
Procedure: as §1, §2

[22] = tested on: Klebsiella pneumoniae OXA-163, OXA-1_OXA-30, SHV-1, TEM-1
Procedure: as §1, §2

SMILES | MIC [1] | MIC [2] | MIC (Escherichia coli CMY-2) | MIC [3] | MIC [4] | MIC [5] | MIC [6] | MIC [7] | MIC [8] | MIC [9] | MIC [10] | MIC [11] | MIC [12] | MIC [13] | MIC [14] | MIC (Escherichia coli SHV-12) | MIC [15] | MIC [16] | MIC [17] | MIC [18] | also measured
Nc1nc(/C(=N/OC2(C(=O)O)CCC2)C(=O)N[C@H]2CON(C3(C(=O)O)C[C@H](N4C(=O)c5cc(O)c(O)cc5C4=O)C(=O)O3)C2=O)cs1 (stereo partly drawn) [Cmpd 4, (4S)-2-[(4S)-4-{[(2Z)-2-(2-amino-1,3-thiazol-4-yl)-2-{[(1-carboxycyclobutyl)oxy]imino}acetyl]amino}-3-oxo-1,2-oxazolidin-2-yl]-4-(5,6-dihydroxy-1,3-dioxo-1,3-dihydro-2H-isoindol-2-yl)-5-oxooxolane-2-carboxylic acid] | 0.25 µg/mL (≈ 0.371 µM) | 0.25 µg/mL (≈ 0.371 µM) | 2 µg/mL (≈ 2.96 µM) | 0.06 µg/mL (≈ 0.0889 µM) | 0.06 µg/mL (≈ 0.0889 µM) | 0.12 µg/mL (≈ 0.178 µM) | 0.25 µg/mL (≈ 0.371 µM) | ≤ 0.015 µg/mL | 0.06 µg/mL (≈ 0.0889 µM) | 1 µg/mL (≈ 1.48 µM) | 1 µg/mL (≈ 1.48 µM) | ≤ 0.015 µg/mL | 0.12 µg/mL (≈ 0.178 µM) | 1 µg/mL (≈ 1.48 µM) | 0.03 µg/mL (≈ 0.0445 µM) | 1 µg/mL (≈ 1.48 µM) | 0.06 µg/mL (≈ 0.0889 µM) | 1 µg/mL (≈ 1.48 µM) | 0.12 µg/mL (≈ 0.178 µM) | 0.06 µg/mL (≈ 0.0889 µM) | MIC [19]: 0.03 µg/mL (≈ 0.0445 µM); MIC [20]: ≤ 0.015 µg/mL; MIC [21]: 0.03 µg/mL (≈ 0.0445 µM); MIC [22]: 0.06 µg/mL (≈ 0.0889 µM)
Nc1nc(/C(=N/OC2(C(=O)O)COC2)C(=O)N[C@H]2CON(C3(C(=O)O)C[C@H](N4C(=O)c5cc(O)c(O)cc5C4=O)C(=O)O3)C2=O)cs1 (stereo partly drawn) [Cmpd 5, (4S)-2-[(4S)-4-{[(2Z)-2-(2-amino-1,3-thiazol-4-yl)-2-{[(3-carboxyoxetan-3-yl)oxy]imino}acetyl]amino}-3-oxo-1,2-oxazolidin-2-yl]-4-(5,6-dihydroxy-1,3-dioxo-1,3-dihydro-2H-isoindol-2-yl)-5-oxooxolane-2-carboxylic acid] | 0.25 µg/mL (≈ 0.37 µM) | 0.25 µg/mL (≈ 0.37 µM) | 4 µg/mL (≈ 5.91 µM) | 0.06 µg/mL (≈ 0.0887 µM) | 0.03 µg/mL (≈ 0.0443 µM) | 0.25 µg/mL (≈ 0.37 µM) | 0.25 µg/mL (≈ 0.37 µM) | ≤ 0.015 µg/mL | 0.12 µg/mL (≈ 0.177 µM) | 2 µg/mL (≈ 2.96 µM) | 2 µg/mL (≈ 2.96 µM) | ≤ 0.015 µg/mL | 0.25 µg/mL (≈ 0.37 µM) | 1 µg/mL (≈ 1.48 µM) | 0.03 µg/mL (≈ 0.0443 µM) | 1 µg/mL (≈ 1.48 µM) | 0.06 µg/mL (≈ 0.0887 µM) | 2 µg/mL (≈ 2.96 µM) | 0.12 µg/mL (≈ 0.177 µM) | 0.06 µg/mL (≈ 0.0887 µM) | MIC [19]: 0.03 µg/mL (≈ 0.0443 µM); MIC [20]: ≤ 0.015 µg/mL; MIC [21]: 0.03 µg/mL (≈ 0.0443 µM); MIC [22]: 0.06 µg/mL (≈ 0.0887 µM)
Nc1nc(/C(=N/OC(CO)(CCl)C(=O)O)C(=O)N[C@H]2CON(C3(C(=O)O)C[C@H](N4C(=O)c5cc(O)c(O)cc5C4=O)C(=O)O3)C2=O)cs1 (stereo partly drawn) [Cmpd 6, (4S)-2-[(4S)-4-{[(2Z)-2-(2-amino-1,3-thiazol-4-yl)-2-{[(2-carboxy-1-chloro-3-hydroxypropan-2-yl)oxy]imino}acetyl]amino}-3-oxo-1,2-oxazolidin-2-yl]-4-(5,6-dihydroxy-1,3-dioxo-1,3-dihydro-2H-isoindol-2-yl)-5-oxooxolane-2-carboxylic acid] | 0.25 µg/mL (≈ 0.351 µM) | 0.25 µg/mL (≈ 0.351 µM) | 1 µg/mL (≈ 1.4 µM) | ≤ 0.015 µg/mL | ≤ 0.015 µg/mL | 0.06 µg/mL (≈ 0.0842 µM) | 0.12 µg/mL (≈ 0.168 µM) | ≤ 0.015 µg/mL | 0.06 µg/mL (≈ 0.0842 µM) | 2 µg/mL (≈ 2.81 µM) | 0.5 µg/mL (≈ 0.701 µM) | ≤ 0.015 µg/mL | 0.12 µg/mL (≈ 0.168 µM) | 1 µg/mL (≈ 1.4 µM) | 0.03 µg/mL (≈ 0.0421 µM) | 1 µg/mL (≈ 1.4 µM) | 0.03 µg/mL (≈ 0.0421 µM) | 2 µg/mL (≈ 2.81 µM) | 0.12 µg/mL (≈ 0.168 µM) | 0.06 µg/mL (≈ 0.0842 µM) | MIC [19]: ≤ 0.015 µg/mL; MIC [20]: ≤ 0.015 µg/mL; MIC [21]: ≤ 0.015 µg/mL; MIC [22]: 0.03 µg/mL (≈ 0.0421 µM)
Nc1nc(/C(=N/OC2(C(=O)O)CNC2)C(=O)N[C@H]2CON(C3(C(=O)O)C[C@H](N4C(=O)c5cc(O)c(O)cc5C4=O)C(=O)O3)C2=O)cs1 (stereo partly drawn) [Cmpd 7, 3-({(Z)-[1-(2-amino-1,3-thiazol-4-yl)-2-({(4S)-2-[(4S)-2-carboxy-4-(5,6-dihydroxy-1,3-dioxo-1,3-dihydro-2H-isoindol-2-yl)-5-oxooxolan-2-yl]-3-oxo-1,2-oxazolidin-4-yl}amino)-2-oxoethylidene]amino}oxy)azetidine-3-carboxylic acid] | > 16 µg/mL | > 16 µg/mL | 4 µg/mL (≈ 5.92 µM) | 1 µg/mL (≈ 1.48 µM) | 0.25 µg/mL (≈ 0.37 µM) | 1 µg/mL (≈ 1.48 µM) | 1 µg/mL (≈ 1.48 µM) | 0.12 µg/mL (≈ 0.178 µM) | 0.5 µg/mL (≈ 0.74 µM) | > 16 µg/mL | 8 µg/mL (≈ 11.8 µM) | 0.12 µg/mL (≈ 0.178 µM) | > 16 µg/mL | > 16 µg/mL | 0.5 µg/mL (≈ 0.74 µM) | 1 µg/mL (≈ 1.48 µM) | 0.5 µg/mL (≈ 0.74 µM) | 8 µg/mL (≈ 11.8 µM) | > 16 µg/mL | 0.5 µg/mL (≈ 0.74 µM) | MIC [19]: 0.5 µg/mL (≈ 0.74 µM); MIC [20]: 0.12 µg/mL (≈ 0.178 µM); MIC [21]: 0.12 µg/mL (≈ 0.178 µM); MIC [22]: 0.5 µg/mL (≈ 0.74 µM)
CN1CCC(O/N=C(\C(=O)N[C@H]2CON(C3(C(=O)O)C[C@H](N4C(=O)c5cc(O)c(O)cc5C4=O)C(=O)O3)C2=O)c2csc(N)n2)(C(=O)O)CC1 (stereo partly drawn) [Cmpd 9, 4-({(Z)-[1-(2-amino-1,3-thiazol-4-yl)-2-({(4S)-2-[(4S)-2-carboxy-4-(5,6-dihydroxy-1,3-dioxo-1,3-dihydro-2H-isoindol-2-yl)-5-oxooxolan-2-yl]-3-oxo-1,2-oxazolidin-4-yl}amino)-2-oxoethylidene]amino}oxy)-1-methylpiperidine-4-carboxylic acid] | 4 µg/mL (≈ 5.57 µM) | 8 µg/mL (≈ 11.1 µM) | 2 µg/mL (≈ 2.79 µM) | 0.25 µg/mL (≈ 0.348 µM) | 0.12 µg/mL (≈ 0.167 µM) | 0.25 µg/mL (≈ 0.348 µM) | 0.5 µg/mL (≈ 0.697 µM) | 0.03 µg/mL (≈ 0.0418 µM) | 0.5 µg/mL (≈ 0.697 µM) | > 16 µg/mL | 0.5 µg/mL (≈ 0.697 µM) | 0.12 µg/mL (≈ 0.167 µM) | 4 µg/mL (≈ 5.57 µM) | > 16 µg/mL | 0.25 µg/mL (≈ 0.348 µM) | 2 µg/mL (≈ 2.79 µM) | 0.25 µg/mL (≈ 0.348 µM) | 4 µg/mL (≈ 5.57 µM) | 2 µg/mL (≈ 2.79 µM) | 0.25 µg/mL (≈ 0.348 µM) | MIC [19]: 0.12 µg/mL (≈ 0.167 µM); MIC [20]: 0.12 µg/mL (≈ 0.167 µM); MIC [21]: 0.12 µg/mL (≈ 0.167 µM); MIC [22]: 0.25 µg/mL (≈ 0.348 µM)
